From PMC7614683, “A small molecule PI3Kα activator for cardioprotection and neuroregeneration” (Nature, 2023)

Target: T1, full length p110α/p85α (Homo sapiens, UniProt P42336)
T1 construct: Full-length human p110α was expressed either in a complex with full-length human p85α (for HTS, biochemistry and HDX-MS); 6xHis tag followed by TEV protease site (N); host or cells: Spodoptera frugiperda Sf9, baculovirus
Assay: HDX-MS
Type: binding
Method: Sample preparation: HDX-MS experiments were carried out as described previously. […] In total, three biological replicates, i.e. three separate protein preparations, each with exchange experiments carried out in triplicate were conducted. Data presented in the manuscript is a single biological replicate. Data acquisition and analysis were as follows: Each sample was thawed and injected onto an M-Class Acquity UPLC with HDX Technology (Waters) kept at 0.1°C. Proteins were digested in-line using an Enzymate Pepsin Column (Waters, #186007233) at 15°C for 2 min at 200 μl/min. Peptic peptides were then eluted onto an Acquity UPLC BEH C18 Column (Waters, #186002346) equilibrated in Pepsin-A buffer (0.1% formic acid) and separated using a 5-35% gradient of Pepsin-B buffer (0.1% formic acid, 99% acetonitrile) over 7 min at a flowrate of 40 μl/min. Data were collected on a Waters Cyclic IMS, with an electrospray ionisation source, from 50-2000 m/z. Data were collected in the HDMS^E mode. A single pass of the cyclic IMS was conducted. A “blank” sample of protein dilution buffer with quench was run between samples, and carry-over of peptides was routinely monitored. Five replicates were used to identify non-deuterated peptides. Criteria used to include peptides in the HDX-MS dataset were: minimum intensity 5000, minimum sequence length 5, maximum sequence length 25, a minimum of 3 fragment ions, a minimum of 0.1 products per amino acid, a minimum score of 6.62, a maximum MH+ Error of 10 ppm, identification in at least two datasets with a retention time RSD of less than 10%. Data was analysed using Protein Lynx Global Server (Waters) and DynamX (Waters). All peptides were manually inspected for EX1 kinetics and sufficient quality of the peptide envelope. Data quality, experiment design, and reporting of data meets the criteria as determined by the HDX-MS community. Uptake files were created using Baryonyx. Data are available via ProteomeXchange with identifier PXD037721.

[1] = PK3CA_HUMAN peptide 241-250, time point 3 of 5
[2] = PK3CA_HUMAN peptide 241-250, time point 4 of 5
[3] = PK3CA_HUMAN peptide 241-250, time point 5 of 5
[4] = PK3CA_HUMAN peptide 260-266, time point 1 of 5
[5] = PK3CA_HUMAN peptide 260-266, time point 2 of 5
[6] = PK3CA_HUMAN peptide 260-266, time point 3 of 5
[7] = PK3CA_HUMAN peptide 260-266, time point 4 of 5
[8] = PK3CA_HUMAN peptide 260-266, time point 5 of 5
[9] = PK3CA_HUMAN peptide 262-272, time point 1 of 5
[10] = PK3CA_HUMAN peptide 262-272, time point 2 of 5
[11] = PK3CA_HUMAN peptide 262-272, time point 3 of 5
[12] = PK3CA_HUMAN peptide 262-272, time point 4 of 5
[13] = PK3CA_HUMAN peptide 262-272, time point 5 of 5
[14] = PK3CA_HUMAN peptide 273-281, time point 1 of 5
[15] = PK3CA_HUMAN peptide 273-281, time point 2 of 5
[16] = PK3CA_HUMAN peptide 273-281, time point 3 of 5
[17] = PK3CA_HUMAN peptide 273-281, time point 4 of 5
[18] = PK3CA_HUMAN peptide 273-281, time point 5 of 5
[19] = PK3CA_HUMAN peptide 278-286, time point 1 of 5
[20] = PK3CA_HUMAN peptide 278-286, time point 2 of 5
[21] = PK3CA_HUMAN peptide 278-286, time point 3 of 5
[22] = PK3CA_HUMAN peptide 278-286, time point 4 of 5
[23] = PK3CA_HUMAN peptide 278-286, time point 5 of 5
[24] = PK3CA_HUMAN peptide 287-293, time point 1 of 5
[25] = PK3CA_HUMAN peptide 287-293, time point 2 of 5
[26] = PK3CA_HUMAN peptide 287-293, time point 3 of 5
[27] = PK3CA_HUMAN peptide 287-293, time point 4 of 5
[28] = PK3CA_HUMAN peptide 287-293, time point 5 of 5
[29] = PK3CA_HUMAN peptide 288-293, time point 1 of 5
[30] = PK3CA_HUMAN peptide 288-293, time point 2 of 5
[31] = PK3CA_HUMAN peptide 288-293, time point 3 of 5
[32] = PK3CA_HUMAN peptide 288-293, time point 4 of 5
[33] = PK3CA_HUMAN peptide 288-293, time point 5 of 5
[34] = PK3CA_HUMAN peptide 326-333, time point 1 of 5
[35] = PK3CA_HUMAN peptide 326-333, time point 2 of 5
[36] = PK3CA_HUMAN peptide 326-333, time point 3 of 5
[37] = PK3CA_HUMAN peptide 326-333, time point 4 of 5

T1 sequence (P42336 whole entry): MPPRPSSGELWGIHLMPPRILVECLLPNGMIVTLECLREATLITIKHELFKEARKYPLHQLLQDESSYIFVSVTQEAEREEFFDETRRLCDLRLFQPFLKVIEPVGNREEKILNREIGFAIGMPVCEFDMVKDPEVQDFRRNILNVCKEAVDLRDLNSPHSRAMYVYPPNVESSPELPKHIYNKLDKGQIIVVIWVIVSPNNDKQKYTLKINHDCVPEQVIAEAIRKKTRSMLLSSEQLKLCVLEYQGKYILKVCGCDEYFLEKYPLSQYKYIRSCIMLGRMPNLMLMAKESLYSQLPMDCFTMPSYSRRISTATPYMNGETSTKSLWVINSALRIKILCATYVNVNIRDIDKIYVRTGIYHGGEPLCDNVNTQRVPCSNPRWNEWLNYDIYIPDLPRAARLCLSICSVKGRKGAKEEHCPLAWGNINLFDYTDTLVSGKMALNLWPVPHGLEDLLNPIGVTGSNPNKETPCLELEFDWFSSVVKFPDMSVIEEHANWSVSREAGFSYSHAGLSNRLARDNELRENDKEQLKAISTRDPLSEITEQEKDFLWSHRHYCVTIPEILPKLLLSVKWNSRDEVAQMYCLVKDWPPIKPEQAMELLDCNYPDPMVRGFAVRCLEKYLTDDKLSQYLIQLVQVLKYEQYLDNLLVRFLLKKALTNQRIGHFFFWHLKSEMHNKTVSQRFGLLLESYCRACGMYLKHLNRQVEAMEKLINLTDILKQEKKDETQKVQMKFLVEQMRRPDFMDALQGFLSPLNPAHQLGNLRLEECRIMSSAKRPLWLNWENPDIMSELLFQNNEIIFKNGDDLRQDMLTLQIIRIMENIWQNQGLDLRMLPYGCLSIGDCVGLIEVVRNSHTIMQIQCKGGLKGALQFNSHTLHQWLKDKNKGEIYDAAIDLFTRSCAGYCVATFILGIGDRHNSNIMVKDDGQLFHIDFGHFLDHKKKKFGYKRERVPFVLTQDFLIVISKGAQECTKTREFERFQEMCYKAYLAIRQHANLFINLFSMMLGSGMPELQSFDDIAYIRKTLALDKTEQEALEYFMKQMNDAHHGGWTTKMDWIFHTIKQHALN
T1 sequence (P27986 whole entry partner): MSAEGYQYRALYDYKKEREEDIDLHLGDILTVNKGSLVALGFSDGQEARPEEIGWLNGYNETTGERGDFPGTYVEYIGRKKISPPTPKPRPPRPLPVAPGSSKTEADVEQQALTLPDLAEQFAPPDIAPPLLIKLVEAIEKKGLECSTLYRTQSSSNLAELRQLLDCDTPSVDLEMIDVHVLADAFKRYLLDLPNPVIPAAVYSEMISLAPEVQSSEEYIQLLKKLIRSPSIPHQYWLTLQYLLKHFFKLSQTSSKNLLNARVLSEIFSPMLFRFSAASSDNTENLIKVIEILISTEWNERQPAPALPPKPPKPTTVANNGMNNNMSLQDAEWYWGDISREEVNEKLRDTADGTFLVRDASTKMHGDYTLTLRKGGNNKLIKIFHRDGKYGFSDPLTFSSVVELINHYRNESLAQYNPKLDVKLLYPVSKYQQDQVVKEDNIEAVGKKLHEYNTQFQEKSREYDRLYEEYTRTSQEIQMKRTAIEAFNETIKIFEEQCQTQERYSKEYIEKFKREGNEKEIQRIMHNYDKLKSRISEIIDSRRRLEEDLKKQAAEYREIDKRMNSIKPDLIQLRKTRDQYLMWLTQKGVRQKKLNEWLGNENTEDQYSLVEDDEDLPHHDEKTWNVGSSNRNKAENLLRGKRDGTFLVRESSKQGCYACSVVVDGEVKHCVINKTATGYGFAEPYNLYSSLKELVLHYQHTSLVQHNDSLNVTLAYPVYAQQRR

Compound: CCN1CCN(c2ccc(Nc3cc(Nc4cccc5c4N(C(C)=O)CC5)ccn3)cc2)CC1 [Compound 1938]
- HDX difference (%D) [1]: 0.6%
- HDX difference (Da) [1]: 0.0529 Da
- HDX difference (%D) [2]: 0.112%
- HDX difference (Da) [2]: 0.01 Da
- HDX difference (%D) [3]: 0.113%
- HDX difference (Da) [3]: 0.01 Da
- HDX difference (%D) [4]: -0.0157%
- HDX difference (Da) [4]: -0.000943 Da
- HDX difference (%D) [5]: 0.0014%
- HDX difference (Da) [5]: 8.39e-5 Da
- HDX difference (%D) [6]: 0.136%
- HDX difference (Da) [6]: 0.00818 Da
- HDX difference (%D) [7]: 0.659%
- HDX difference (Da) [7]: 0.04 Da
- HDX difference (%D) [8]: 1.2%
- HDX difference (Da) [8]: 0.07 Da
- HDX difference (%D) [9]: -0.8%
- HDX difference (Da) [9]: -0.07 Da
- HDX difference (%D) [10]: 0.264%
- HDX difference (Da) [10]: 0.0238 Da
- HDX difference (%D) [11]: 0.3%
- HDX difference (Da) [11]: 0.0282 Da
- HDX difference (%D) [12]: -0.571%
- HDX difference (Da) [12]: -0.05 Da
- HDX difference (%D) [13]: -0.7%
- HDX difference (Da) [13]: -0.06 Da
- HDX difference (%D) [14]: 1.3%
- HDX difference (Da) [14]: 0.10 Da
- HDX difference (%D) [15]: 0.9%
- HDX difference (Da) [15]: 0.07 Da
- HDX difference (%D) [16]: 0.8%
- HDX difference (Da) [16]: 0.06 Da
- HDX difference (%D) [17]: 0.743%
- HDX difference (Da) [17]: 0.06 Da
- HDX difference (%D) [18]: 0.428%
- HDX difference (Da) [18]: 0.0342 Da
- HDX difference (%D) [19]: -0.131%
- HDX difference (Da) [19]: -0.01 Da
- HDX difference (%D) [20]: -0.178%
- HDX difference (Da) [20]: -0.0142 Da
- HDX difference (%D) [21]: -0.652%
- HDX difference (Da) [21]: -0.05 Da
- HDX difference (%D) [22]: -1.2%
- HDX difference (Da) [22]: -0.10 Da
- HDX difference (%D) [23]: -1.0%
- HDX difference (Da) [23]: -0.08 Da
- HDX difference (%D) [24]: 0.00815%
- HDX difference (Da) [24]: 0.000489 Da
- HDX difference (%D) [25]: 0.168%
- HDX difference (Da) [25]: 0.01 Da
- HDX difference (%D) [26]: -0.19%
- HDX difference (Da) [26]: -0.0114 Da
- HDX difference (%D) [27]: -0.0604%
- HDX difference (Da) [27]: -0.00362 Da
- HDX difference (%D) [28]: -0.4%
- HDX difference (Da) [28]: -0.0241 Da
- HDX difference (%D) [29]: -0.334%
- HDX difference (Da) [29]: -0.0167 Da
- HDX difference (%D) [30]: -0.17%
- HDX difference (Da) [30]: -0.00848 Da
- HDX difference (%D) [31]: -0.5%
- HDX difference (Da) [31]: -0.0241 Da
- HDX difference (%D) [32]: 0.8%
- HDX difference (Da) [32]: 0.04 Da
- HDX difference (%D) [33]: -0.113%
- HDX difference (Da) [33]: -0.00564 Da
- HDX difference (%D) [34]: -1.8%
- HDX difference (Da) [34]: -0.13 Da
- HDX difference (%D) [35]: -4.4%
- HDX difference (Da) [35]: -0.31 Da
- HDX difference (%D) [36]: -3.0%
- HDX difference (Da) [36]: -0.21 Da
- HDX difference (%D) [37]: -3.1%
- HDX difference (Da) [37]: -0.21 Da
- HDX difference (%D) (PK3CA_HUMAN peptide 326-333, time point 5 of 5): -4.2%
